Structures are written as SMILES. Some results are limits rather than exact numbers.

The first test has as its system purified human Hsp90. As to the kind of experiment: Binding Assay: fluorescence polarization with BODIPY-labeled geldanamycin. The conditions noted are these: 5 μM compound, BODIPY-GM 10 nM, Hsp90 30 nM. The gist of the method:
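Fluorescence polarization competition with BODIPY-geldanamycin (10 nM final) and human Hsp90 (30 nM final) in HEPES-KOH pH 7.3 buffer with molybdate, NP-40, DTT; 2% DMSO, overnight at room temperature. Read 485/530 nm; percent inhibition from mP normalized to DMSO controls, fluorescent-compound points excluded.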
In general terms: Polarisation of emitted light reports the rotation of a fluorescent probe.
The term % Inhibition denotes how much of the control response was suppressed. A low value points to a response near the control. On to `C[C@H](NC(=O)OC(C)(C)C)C(=O)N1CCCC(Cn2cnc(N)c3nc(Sc4cc5c(cc4Br)OCO5)nc2-3)C1` (stereo partly drawn) [Example 779, tert-butyl {(1S)-2-[3-({6-amino-8-[(6-bromo-1,3-benzodioxol-5-yl)thio]-3H-purin-3-yl}methyl)piperidin-1-yl]-1-methyl-2-oxoethyl}carbamate], for which the “% Inhibition at 5 μM Compound Concentration” value (from here on “% Inhibition”) came out at 43.00%. Consider `Nc1ncn(CC(c2ccccc2)C2CCCC2)c2nc(Sc3cc4c(cc3Br)OCO4)nc1-2` (stereo not shown) [Example 102, 8-(6-bromo-benzo[1,3]dioxol-5-ylsulfanyl)-3-(2-cyclopentyl-2-phenyl-ethyl)-3H-purin-6-ylamine], for which the “% Inhibition” value stood at 39%. The same measure, in the same setting: then `COc1ccc(OC)c(Sc2nc3c(N)ncn(CC(c4ccccc4)C(C)C)c-3n2)c1` (stereo not shown) [Example 114, 8-(2,5-dimethoxy-phenylsulfanyl)-3-(3-methyl-2-phenyl-butyl)-3H-purin-6-ylamine], with 14%. For the molecule `COc1c(F)cc(Sc2nc3c(N)ncn(CCC4CCN(C(C)=O)CC4)c-3n2)cc1Cl` [Example 570, 3-[2-(1-Acetylpiperidin-4-yl)ethyl]-8-[(3-chloro-5-fluoro-4-methoxyphenyl)thio]-3 H-purin-6-amine], the “% Inhibition” value worked out at 0.00%. On the same count and under the same terms, then `CC(C)CN1CCCCC1CCn1cnc(N)c2nc(Sc3cc4c(cc3Br)OCO4)nc1-2` (stereo not shown) [Example 448, 8-[(6-Bromo-1,3-benzodioxol-5-yl)thio]-3-[2-(1-isobutylpiperidin-2-yl)ethyl]-3H-purin-6-amine], with 45%. Same read-out and setting: under `COc1ccc(OC)c(Sc2nc3c(N)ncn(CCC4CC(C)(C)NC(C)(C)C4)c-3n2)c1` [Example 360, 8-[(2,5-Dimethoxyphenyl)thio]-3-[2-(2,2,6,6-tetramethylpiperidin-4-yl)ethyl]-3H-purin-6-amine] stands 5%.

On to `COc1cc(CCn2cnc(N)c3nc(Sc4cc5c(cc4Br)OCO5)nc2-3)cc(OC)c1` [Example 196, 8-(6-Bromo-benzo[1,3]dioxol-5-ylsulfanyl)-3-[2-(3,5-dimethoxy-phenyl)-ethyl]-3H-purin-6-ylamine], for which the “% Inhibition” value was determined as 10%.

For the molecule `Nc1ncn(CCC2CCN(C=O)CC2)c2nc(Sc3cc4c(cc3Br)OCO4)nc1-2` [Example 602, 4-(2-{6-Amino-8-[(6-bromo-1,3-benzodioxol-5-yl)thio]-3 H-purin-3-yl}ethyl)piperidine-1-carbaldehyde], the “% Inhibition” value is listed as 31.00%.

Take `COc1ccc(OC)c(Sc2nc3c(N)ncn(CCc4ccc(S(=O)(=O)O)cc4)c-3n2)c1` [Example 176, 4-{2-[6-amino-8-(2,5-dimethoxy-phenylsulfanyl)-purin-3-yl]-ethyl}-benzenesulfonic acid]: the “% Inhibition” value stood at 6%. On the same count and under the same terms, then `COc1ccc(OC)c(Sc2nc3c(N)ncn(CCc4ccc(C(=O)O)cc4)c-3n2)c1` [Example 82, 4-{2-[6-Amino-8-(2,5-dimethoxy-phenylsulfanyl)-purin-3-yl]-ethyl}-benzoic acid], with 5%; and `COc1ccc(OC)c(Sc2nc3c(N)ncn(CCc4cccc(Br)c4)c-3n2)c1` [Example 78, 3-[2-(3-bromo-phenyl)-ethyl]-8-(2,5-dimethoxy-phenylsulfanyl)-3H-purin-6-ylamine], with 17%.

The same test, now with this note: BODIPY-GM 10 nM, Hsp90 30 nM.
What is called IC50 is the point on the concentration scale where inhibition reaches its midpoint. Take `Nc1ncnc2c1nc(Sc1ccc3c(c1)OC(F)(F)O3)n2CCc1ccccc1` [Example 292, 8-[(2,2-Difluoro-1,3-benzodioxol-5-yl)thio]-9-(2-phenylethyl)-9H-purin-6-amine]: the IC50 is > 25000 nM.

In turn, `COc1ccc(OC)c(Sc2nc3c(N)ncn(CCN4CCCCC4)c-3n2)c1` [Example 490, 8-[(2,5-Dimethoxyphenyl)thio]-3-(2-piperidin-1-ylethyl)-3 H-purin-6-amine] yielded a half-inhibitory concentration (IC50) of 25000 nM. Still for that read-out and setting: under `N#CC1CCN(CCn2c(Sc3cc4c(cc3Br)OCO4)nc3c(N)ncnc32)CC1` [Example 575, 1-(2-{6-Amino-8-[(6-bromo-1,3-benzodioxol-5-yl)thio]-9 H-purin-9-yl}ethyl)piperidine-4-carbonitrile] stands 800 nM. On the same count and under the same terms, under `COc1cc(Sc2nc3c(N)ncn(CCc4ccc(Cl)cc4)c-3n2)cc(OC)c1OC` [Example 32, 3-[2-(4-chloro-phenyl)-ethyl]-8-(3,4,5-trimethoxy-phenylsulfanyl)-3H-purin-6-ylamine] stands > 10000 nM. Consider `Nc1ncnc2c1nc(Sc1cc3c(cc1Br)OCO3)n2CCC1CCN(C(=O)C2(C(F)(F)F)CC2)CC1` [Example 526, 8-[(6-Bromo-1,3-benzodioxol-5-yl)thio]-9-[2-(1-{[1-(trifluoromethyl)cyclopropyl]carbonyl}piperidin-4-yl)ethyl]-9 H-purin-6-amine], for which the IC50 came out at 300 nM.

For `CC(C)[C@H](NC(=O)OC(C)(C)C)C(=O)N1CCC(CCn2c(Sc3cc4c(cc3Br)OCO4)nc3c(N)ncnc32)CC1` [Example 713, tert-Butyl((1S)-1-{[4-(2-{6-amino-8-[(6-bromo-1,3-benzodioxol-5-yl)thio]-9H-purin-9-yl}ethyl)piperidin-1-yl]carbonyl}-2-methylpropyl)carbamate], the IC50 is 495 nM. Same read-out and setting: then `CCC(C)C(Cn1c(Sc2cc3c(cc2Br)OCO3)nc2c(N)ncnc21)c1ccccc1` (stereo not shown) [Example 99, 8-(6-Bromo-benzo[1,3]dioxol-5-ylsulfanyl)-9-(3-methyl-2-phenyl-pentyl)-9H-purin-6-ylamine], with 300 nM; and `Nc1ncnc2c1nc(Sc1cc3c(cc1Br)OCO3)n2CCC1CCCN1C(=O)OCc1ccccc1` (stereo not shown) [Example 419, Benzyl 2-(2-{6-amino-8-[(6-bromo-1,3-benzodioxol-5-yl)thio]-9H-purin-9-yl}ethyl)pyrrolidine-1-carboxylate], with 2900 nM.

`COc1ccc(OC)c(Sc2nc3c(N)ncnc3n2CCc2ccsc2)c1` [Example 197, 8-(2,5-Dimethoxy-phenylsulfanyl)-9-(2-thiophen-3-yl-ethyl)-9H-purin-6-ylamine] had an IC50 of 170 nM. As for `CC1(C)CNCCC1CCn1c(Sc2cc3c(cc2Br)OCO3)nc2c(N)ncnc21` (stereo not shown) [Example 472, 8-[(6-Bromo-1,3-benzodioxol-5-yl)thio]-9-[2-(3,3-dimethylpiperidin-4-yl)ethyl]-9 H-purin-6-amine], the IC50 was 70 nM. Still for that read-out and setting: then `Nc1ncnc2c1nc(Sc1cc3c(cc1Br)OCO3)n2CCC1CCNCC1` [Example 465, 8-[(6-bromo-1,3-benzodioxol-5-yl)thio]-9-(2-piperidin-4-ylethyl)-9H-purin-6-amine], with 470 nM; and `Nc1ncnc2c1nc(Sc1cc3c(cc1Br)OCO3)n2CCC(N)C1CCOCC1` (stereo not shown) [Example 692, 9-[3-Amino-3-(tetrahydro-pyran-4-yl)-propyl]-8-(6-bromo-benzo[1,3]dioxol-5-ylsulfanyl)-9H-purin-6-ylamine], with 2000 nM. The same measure, in the same setting: then `CC(C)(C)OC(=O)NC1(C(=O)N2CCC(CCn3c(Sc4cc5c(cc4Br)OCO5)nc4c(N)ncnc43)CC2)CC1` [Example 709, tert-Butyl(1-{[4-(2-{6-amino-8-[(6-bromo-1,3-benzodioxol-5-yl)thio]-9H-purin-9-yl}ethyl)piperidin-1-yl]carbonyl}cyclopropyl)carbamate], with 230 nM; and `CC(=O)Nc1ccc(Sc2nc3c(N)ncnc3n2CCC2CCN(C=O)CC2)c(Cl)c1` [Example 548, N-[4-({6-Amino-9-[2-(1-formylpiperidin-4-yl)ethyl]-9 H-purin-8-yl}thio)-3-chlorophenyl]acetamide], with > 5000 nM; and `Nc1ncnc2c1nc(Sc1cc3c(cc1Br)OCO3)n2CCC1CCN(C=O)CC1` [Example 363, 4-(2-{6-Amino-8-[(6-bromo-1,3-benzodioxol-5-yl)thio]-9H-purin-9-yl}ethyl)piperidine-1-carbaldehyde], with 300 nM. For the molecule `Nc1ncnc2c1nc(Sc1cc3c(cc1Br)OCO3)n2CCC1CCN(CC(F)(F)F)CC1` [Example 585, 8-[(6-Bromo-1,3-benzodioxol-5-yl)thio]-9-{2-[1-(2,2,2-trifluoroethyl)piperidin-4-yl]ethyl}-9 H-purin-6-amine], the IC50 worked out at 600 nM. Molecule `COc1ccc(I)c(Sc2nc3c(N)ncnc3n2CCc2ccccc2)c1` [Example 322, 8-[(2-Iodo-5-methoxyphenyl)thio]-9-(2-phenylethyl)-9H-purin-6-amine] gave an IC50 of 100 nM. Still for that read-out and setting: then `CC(C)NC(=O)N1CCCC(CCn2c(Sc3cc4c(cc3Br)OCO4)nc3c(N)ncnc32)C1` (stereo not shown) [Example 436, 3-(2-{6-Amino-8-[(6-bromo-1,3-benzodioxol-5-yl)thio]-9H-purin-9-yl}ethyl)-N-isopropylpiperidine-1-carboxamide], with 390 nM. On the same count and under the same terms, then `Nc1ncnc2c1nc(Sc1cc3c(cc1Br)OCO3)n2CC[C@H]1CCCNC1` [Example 473, 8-[(6-Bromo-1,3-benzodioxol-5-yl)thio]-9-{2-[(3R)-piperidin-3-yl]ethyl}-9 H-purin-6-amine], with 35 nM; and `COc1cc(Sc2nc3c(N)nc(F)nc3n2CCc2ccccc2Cl)cc(OC)c1OC` [Example 237, 9-[2-(2-Chlorophenyl)ethyl]-2-fluoro-8-[(3,4,5-trimethoxyphenyl)thio]-9H-purin-6-amine], with > 25000 nM; and `COc1ccc(OC)c(Sc2nc3c(N)ncnc3n2CCc2ccc([N+](=O)[O-])cc2)c1` [Example 8, 8-(2,5-Dimethoxy-phenylsulfanyl)-9-[2-(4-nitro-phenyl)-ethyl]-9H-purin-6-ylamine], with 18000 nM.

For the molecule `CC(C)(C)CC(=O)N1CCCC(CCn2c(Sc3cc4c(cc3Br)OCO4)nc3c(N)ncnc32)C1` (stereo not shown) [Example 454, 8-[(6-Bromo-1,3-benzodioxol-5-yl)thio]-9-{2-[1-(3,3-dimethylbutanoyl)piperidin-3-yl]ethyl}-9H-purin-6-amine], the IC50 stood at 305 nM. For the molecule `Nc1ncnc2c1nc(Sc1cc3c(cc1Br)OCO3)n2CCC(N)C1CCCCC1` (stereo not shown) [Example 690, 9-(3-Amino-3-cyclohexylpropyl)-8-[(6-bromo-1,3-benzodioxol-5-yl)thio]-9H-purin-6-amine], the IC50 turned out to be 290 nM.
